Results taken from patent US9585821B2, “Methods for making compositions for improving skin conditions” (Allergan Industrie SAS, priority 2010, dated 2017).

Columns and labels:
[1] = Appearance of fluid compositions, visually examined; type: physicochemical; details: fluid compositions comprising a matrix polymer
Description: Fluid compositions made for testing were prepared as described in Example 1, except that 1) 1 mL of each fluid composition was made and the amount of mannitol added to the test fluid compositions was 0% (w/v) for control, 0.5% (w/v), 5% (w/v), 9% (w/v), and 17% (w/v). The appearance of the fluid compositions was visually examined.

[2] = Chemical and physical stability of mannitol after sterilization; type: physicochemical; details: 25% Mannitol autoclaved five times at 121° C. for 15 minutes
Description: The chemical and physical stability of mannitol after sterilization was determined by autoclaving 25% Mannitol ([…] Pharmaceuticals, Itasca, Ill.) five times at 121° C. for 15 minutes.

[3] = known, cited from earlier work

mannitol that fluid compositions can include before it begins to precipitate [1]: about 15.4%
chemical and physical stability after sterilization [2]: chemically and physically stable
Structure (SMILES): OC[C@@H](O)[C@@H](O)[C@H](O)[C@H](O)CO [mannitol]
mass solubility ([3]; in water): 15.4%
mannitol solubility in water [3]: 1 g mannitol/5.5 ml water
